Data taken from patent US11608319B2, “Beta-amino acid derivative, kinase inhibitor and pharmaceutical composition containing the same, and method for performing an in vivo related application that benefits from the inhibition of a kinase” (Industrial Technology Research Institute, priority 2019, dated 2023).
pIC50: −log10 of the molar value. Where a name gives a salt, the structure may show the parent alone. Read-outs that look alike come from different tables or passages of the source.

Key:
MYLK4 = MYLK4 (Homo sapiens (Human), UniProt Q86YV6); assay: Assay for inhibitory effect on MYLK-4, LanthaScreen Eu Kinase Binding Assay
ROCK1 = ROCK1 (Homo sapiens (Human), UniProt Q13464); assay: biochemical
YSK4 = YSK4 (Homo sapiens (Human), UniProt Q56UN5); assay: Assay for inhibitory effect on YSK-4, Z'-LYTE kinase assay; assay type: biochemical; details: ATP 5 μM
Procedure: C. Assay for Inhibitory Effect on YSK-4
The experimental procedure referred to the Z′-LYTE Screening Protocol and Assay Conditions provided by ThermoFisher Scientific.
C-1. Material Preparation
Peptide/Kinase Mixture was pre-diluted with Kinase Buffer to 2× working concentration.
ATP solution was pre-diluted with Kinase Buffer (50 mM HEPES pH 7.5, 0.01% BRIJ-35, 10 mM MgCl2, 1 mM EGTA) to 4× working concentration.
The development reagent solution is Novel PKC Lipid Mix, which contains 2 mg/mL Phosphatidyl Serine, 0.2 mg/mL DAG in 20 mM HEPES, pH 7.4 and 0.3% CHAPS, and was pre-diluted 10 fold with development buffer.
1. 100 nL of the above diluted test compound and 2.4 μL of kinase buffer were added to a black 384-well plate (Corning, Cat. NO. 4514), then add 5 μL of the peptide/kinase mixture mentioned above was added thereto, and after that 2.5 μL of ATP solution was added thereto, and the culture plate was shaken for 30 seconds.
2. Next, the culture plate was placed at room temperature and incubated for 60 minutes.
3. After that 5 μL of the development reagent solution was added and the culture plate was shaken for 30 seconds in the dark, and then the data was read and analyzed with a fluorescence plate reader.
In addition, for the kinase, the following control group was prepared and placed on the same culture plate as the kinase:
(1) 0% Phosphorylation Control (100% Inhibition Control)
This control yields 100% cleaved peptide in the Development Reaction.
(2) 100% Phosphorylation Control
A synthetically phosphorylated peptide of the same sequence as the peptide substrate is used as the 100% Phosphorylation Control.
The Phosphorylation percent achieved in a specific reaction well (Experimental group) was calculated based on the 0% Phosphorylation Control and 100% Phosphorylation Control.

rabbit eyes = assay: Safety margin assay (eye irritation, OECD/OCDE 405); details: Therapeutic index: 3
[1] = tested on: rabbit eyes with normal intraocular pressure; details: eye drop concentration
Procedure: The maximal effect (Emax) dose evaluation of the intraocular pressure reduction model in normal rabbit
Animals: Male New Zealand white rabbits (n=7/each group);
Administration: 50 μL of the test compound was instilled in the right eye (dosed eye) and 50 μL of the vehicle (without the test compound) in the left eye (control eye) of each experimental animal. The 3 formulation mentioned above were administered once a day for 3 consecutive days.
The intraocular pressure of each animal was measured by Tono-Vet (iCare) before administration (0 hours) and 2, 4, 6 and 8 hours after administration on Day 1 and Day 3.
The maximum magnitude of the reduction in intraocular pressure %=(Intraocular pressure of the control eye−Intraocular pressure of the dosed eye)/Intraocular pressure of the control eye*100
The data presented in this experiment is the data that has removed the unqualified data (white rabbits with an intraocular pressure difference ≥2 mmHg (n=1) in the two eyes on Day 1 and >5 mmHg in the two eyes before the administration on the Day 3 (n=1) have been removed) and removed the rebound high intraocular pressure (n=3).

[2] = tested on: rabbit eyes with high intraocular pressure induced by magnetic beads; assay: Model of magnetic bead induced high intraocular pressure rabbit (intraocular pressure >30 mmHg); assay type: in vivo, New Zealand white rabbit; details: experiment of Table 13
Excerpt: Evaluation of the effect of reducing intraocular pressure in model of magnetic bead induced high intraocular pressure rabbit (high intraocular pressure model with intraocular pressure >30 mmHg)
Experimental animal: New Zealand white rabbit, male, body weight 2.0-3.0 kg. New Zealand white rabbits were purchased from Huijun Farm (Changhua, Taiwan) before the experiment and were raised in the Animal Center of National Chiao Tung University.
Experimental method: After weighing and grouping male New Zealand white rabbits, the New Zealand white rabbits were anesthetized with Zoletil 50 0.2 mL/kg. 50 μL of magnetic bead solution (50 mg/mL, magnetic bead size of 10 μm) was injected into the left and right anterior eye chambers of the rabbit under anesthesia to make rabbit eyes become a state of high intraocular pressure. After the injection to the anterior chamber of the eye, a strong […] iron magnet ring was immediately put around the eye for 10-20 minutes to make the magnetic beads completely block the drainage tissue of the aqueous humor. After disinfecting the eyeball with antibiotics, moisturizing eye ointment was provided to restore the eyeball, and the intraocular pressure rising was waited. […] The experiment was conducted for 2 consecutive days.

[3] = tested on: rabbit eyes with normal intraocular pressure; assay: Evaluation of the effect of decreasing intraocular pressure in a model of rabbit with normal intraocular pressure; assay type: in vivo, New Zealand white rabbit; details: for Intraocular pressure difference (mmHg): at time point of maximum effect
Procedure: Evaluation of the Effect of Decreasing Intraocular Pressure in a Model of Rabbit with Normal Intraocular Pressure
Experimental animal: New Zealand white rabbit, male, weighing more than 2 kg. New Zealand white rabbits were purchased from Huijun Farm (Changhua, Taiwan). After a one-week quarantine period, they were raised in MASTER LABORATORY Co., Ltd under the environmental conditions of 16-22° C., 30-70% relative humidity (RH), 8 hours day/16 hours night.
(1) Evaluation of the Effect of Reducing Intraocular Pressure
After weighing 12 New Zealand white rabbits (2.0-4.0 kg) and grouping them (n=3-6 in each group), the white rabbits were fixed with a wrap.

YSK4, sequence (Q56UN5 whole entry): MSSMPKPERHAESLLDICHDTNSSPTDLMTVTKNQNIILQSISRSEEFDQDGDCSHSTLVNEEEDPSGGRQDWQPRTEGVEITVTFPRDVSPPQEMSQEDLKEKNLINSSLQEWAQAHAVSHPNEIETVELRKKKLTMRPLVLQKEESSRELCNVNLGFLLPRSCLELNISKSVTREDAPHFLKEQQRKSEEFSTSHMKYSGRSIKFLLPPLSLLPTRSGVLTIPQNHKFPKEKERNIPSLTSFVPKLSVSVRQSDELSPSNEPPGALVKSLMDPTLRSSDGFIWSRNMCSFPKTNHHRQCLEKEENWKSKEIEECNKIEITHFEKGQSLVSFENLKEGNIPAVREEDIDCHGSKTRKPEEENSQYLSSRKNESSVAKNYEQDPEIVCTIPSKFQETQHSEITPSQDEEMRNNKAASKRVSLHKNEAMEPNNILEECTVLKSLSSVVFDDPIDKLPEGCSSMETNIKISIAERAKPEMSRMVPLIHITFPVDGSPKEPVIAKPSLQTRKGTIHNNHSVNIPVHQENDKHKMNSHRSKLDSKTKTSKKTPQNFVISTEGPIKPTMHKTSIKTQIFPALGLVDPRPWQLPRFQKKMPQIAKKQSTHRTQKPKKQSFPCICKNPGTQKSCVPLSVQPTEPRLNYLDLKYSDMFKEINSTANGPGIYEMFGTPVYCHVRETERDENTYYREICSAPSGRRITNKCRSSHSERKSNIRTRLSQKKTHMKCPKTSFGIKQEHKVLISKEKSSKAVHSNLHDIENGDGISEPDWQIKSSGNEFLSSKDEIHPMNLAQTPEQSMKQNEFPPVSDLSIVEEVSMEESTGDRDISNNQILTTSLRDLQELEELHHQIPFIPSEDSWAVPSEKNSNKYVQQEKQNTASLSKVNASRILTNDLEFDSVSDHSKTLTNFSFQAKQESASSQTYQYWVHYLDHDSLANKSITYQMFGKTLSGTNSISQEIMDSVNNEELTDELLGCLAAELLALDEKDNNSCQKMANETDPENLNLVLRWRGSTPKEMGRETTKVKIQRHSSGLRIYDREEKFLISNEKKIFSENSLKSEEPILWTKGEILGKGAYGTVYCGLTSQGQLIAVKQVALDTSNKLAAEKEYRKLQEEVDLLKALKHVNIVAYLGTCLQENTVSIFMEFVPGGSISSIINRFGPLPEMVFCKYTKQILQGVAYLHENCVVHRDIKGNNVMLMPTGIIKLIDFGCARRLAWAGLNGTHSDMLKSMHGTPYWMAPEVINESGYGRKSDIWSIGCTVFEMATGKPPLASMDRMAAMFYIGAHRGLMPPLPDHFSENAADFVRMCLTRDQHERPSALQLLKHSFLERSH
MYLK4, sequence (Q86YV6 whole entry): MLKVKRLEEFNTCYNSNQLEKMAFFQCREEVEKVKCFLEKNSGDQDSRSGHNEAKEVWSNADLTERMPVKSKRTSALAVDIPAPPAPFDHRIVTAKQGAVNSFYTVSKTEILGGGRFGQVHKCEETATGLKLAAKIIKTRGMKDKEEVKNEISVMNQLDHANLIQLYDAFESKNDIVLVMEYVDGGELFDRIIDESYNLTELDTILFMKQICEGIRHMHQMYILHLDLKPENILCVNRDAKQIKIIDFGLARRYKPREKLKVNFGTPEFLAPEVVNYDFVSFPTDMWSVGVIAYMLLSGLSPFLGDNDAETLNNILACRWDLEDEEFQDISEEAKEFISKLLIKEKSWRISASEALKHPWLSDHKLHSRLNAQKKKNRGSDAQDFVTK
ROCK1, sequence (Q13464 whole entry, species assumed): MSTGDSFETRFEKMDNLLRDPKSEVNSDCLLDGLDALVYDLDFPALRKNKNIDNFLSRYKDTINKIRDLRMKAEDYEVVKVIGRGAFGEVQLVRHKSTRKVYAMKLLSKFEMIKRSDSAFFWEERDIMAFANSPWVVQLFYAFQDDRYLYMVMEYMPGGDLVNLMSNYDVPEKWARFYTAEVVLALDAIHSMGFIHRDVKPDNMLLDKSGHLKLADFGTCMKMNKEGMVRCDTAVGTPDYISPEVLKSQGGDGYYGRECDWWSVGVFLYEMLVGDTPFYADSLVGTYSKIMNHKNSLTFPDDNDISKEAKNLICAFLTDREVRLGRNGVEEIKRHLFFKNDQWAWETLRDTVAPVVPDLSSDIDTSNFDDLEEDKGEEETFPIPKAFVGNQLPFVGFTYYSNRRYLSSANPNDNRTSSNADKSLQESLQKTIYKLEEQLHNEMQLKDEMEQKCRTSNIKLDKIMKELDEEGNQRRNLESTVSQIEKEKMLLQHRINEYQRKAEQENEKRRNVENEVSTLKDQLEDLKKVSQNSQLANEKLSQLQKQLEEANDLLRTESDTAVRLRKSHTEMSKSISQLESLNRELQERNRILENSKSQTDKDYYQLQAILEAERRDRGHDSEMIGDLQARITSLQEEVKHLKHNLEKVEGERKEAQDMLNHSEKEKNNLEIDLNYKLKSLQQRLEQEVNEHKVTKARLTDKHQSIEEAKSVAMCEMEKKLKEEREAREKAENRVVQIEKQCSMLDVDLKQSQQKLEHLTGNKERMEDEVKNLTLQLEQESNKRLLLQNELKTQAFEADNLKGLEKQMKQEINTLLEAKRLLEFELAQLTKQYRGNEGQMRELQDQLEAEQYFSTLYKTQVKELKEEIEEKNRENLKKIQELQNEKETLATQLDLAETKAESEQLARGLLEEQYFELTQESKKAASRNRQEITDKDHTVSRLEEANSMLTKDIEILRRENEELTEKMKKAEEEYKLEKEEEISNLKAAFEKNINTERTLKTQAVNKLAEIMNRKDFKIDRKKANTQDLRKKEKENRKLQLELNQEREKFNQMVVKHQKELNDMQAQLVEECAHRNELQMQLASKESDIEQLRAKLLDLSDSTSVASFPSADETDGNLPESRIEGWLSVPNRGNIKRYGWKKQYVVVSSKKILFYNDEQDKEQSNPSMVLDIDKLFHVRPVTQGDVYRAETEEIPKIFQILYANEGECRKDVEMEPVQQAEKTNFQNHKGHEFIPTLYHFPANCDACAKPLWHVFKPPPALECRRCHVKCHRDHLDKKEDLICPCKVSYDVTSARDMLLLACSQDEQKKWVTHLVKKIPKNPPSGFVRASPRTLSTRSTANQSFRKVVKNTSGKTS

N#C/N=C(/NCc1ccccc1)Nc1ccc(-c2cn[nH]c2)cc1 [Compound 16, 1-(4-(1H-pyrazol-4-yl)phenyl)-3-benzyl-2-cyanoguanidine hydrochloride]
pIC50 (MYLK4): < 5.00
pIC50 (ROCK1; read-out: ROCK1 IC50): < 5.00
pIC50 (YSK4): < 5.00

NCC(C(=O)Nc1ccc(-c2cn[nH]c2)cc1)c1ccccc1 (racemic) [Compound 7, N-(4-(1H-pyrazol-4-yl)phenyl)-3-amino-2-phenylpropanamide dihydrochloride]
OECD Score: Chemosis (rabbit eyes): 0
OECD Score: Discharge (rabbit eyes): 1
OECD Score: Redness (rabbit eyes): 1
OECD Score: Total (rabbit eyes): 2
maximum effect (Emax) dose in the normal intraocular pressure rabbit model [1]: 1%
pIC50 (MYLK4): 7.00 to 8.00
Maximum intraocular pressure difference (mmHg) ([2]; dose 0.5%): 6.7 ± 1.6 mmHg
Maximum intraocular pressure difference (mmHg) ([2]; dose 1%): 11.8 ± 0.8 mmHg
pIC50 (ROCK1): 8.00 to 9.00
time point at which maximum effect is achieved ([3]; dose 1%): 4 h
Intraocular pressure difference (mmHg) ([3]; dose 1%): 5.1 mmHg
pIC50 (YSK4): < 6.00

NCC(C(=S)Nc1ccc(-c2cn[nH]c2)cc1)c1ccccc1 (centres unmarked) [Compound 14, N-(4-(1H-pyrazol-4-yl)phenyl)-3-amino-2-phenylpropanethioamide dihydrochloride]
maximum effect (Emax) dose in the normal intraocular pressure rabbit model [1]: 0.5%
pIC50 (MYLK4): 6.00 to 7.00
pIC50 (ROCK1): 8.00 to 9.00
time point at which maximum effect is achieved ([3]; dose 0.5%): 6 h
Intraocular pressure difference (mmHg) ([3]; dose 0.5%): 2.5 mmHg
pIC50 (YSK4): < 6.00

NCC(OCc1ccccc1)C(=O)Nc1ccc(-c2cn[nH]c2)cc1 (centres unmarked) [Compound 6, N-(4-(1H-pyrazol-4-yl)phenyl)-3-amino-2-(benzyloxy) propanamidedihydrochloride]
pIC50 (MYLK4): 6.00 to 7.00
pIC50 (ROCK1): 7.00 to 8.00
pIC50 (YSK4): < 5.00

NCCN(Cc1ccc(F)cc1)C(=O)c1ccc(-c2cn[nH]c2)cc1 [Compound 17, N-(2-aminoethyl)-N-(4-fluorobenzyl)-4-(1H-pyrazol-4-yl)benzamide dihydrochloride]
pIC50 (MYLK4): < 5.00
pIC50 (ROCK1): 6.00 to 7.00
pIC50 (YSK4): < 5.00

NCC(NC(=S)Nc1ccc(-c2cn[nH]c2)cc1)c1ccccc1 (centres unmarked) [Compound 15, 1-(4-(1H-pyrazol-4-yl)phenyl)-3-(2-amino-1-phenylethyl)thiourea dihydrochloride]
pIC50 (MYLK4): 6.00 to 7.00
pIC50 (ROCK1): 6.00 to 7.00
pIC50 (YSK4): < 5.00

NC[C@H](C(=O)Nc1ccc(-c2cn[nH]c2)cc1)c1ccccc1 [Compound 21, (R)—N-(4-(1H-pyrazol-4-yl)phenyl)-3-amino-2-phenylpropanamide dihydrochloride]
pIC50 (MYLK4): 6.00 to 7.00
pIC50 (ROCK1): 6.00 to 7.00
time point at which maximum effect is achieved ([3]; dose 0.03%): 8 h
Intraocular pressure difference (mmHg) ([3]; dose 0.03%): 1.3 mmHg

[N-]=[N+]=NC(CN)C(=O)Nc1ccc(-c2cn[nH]c2)cc1 (centres unmarked) [Compound 1, N-(4-(1H-pyrazol-4-yl)phenyl)-3-amino-2-azidopropanamide dihydrochloride]
pIC50 (MYLK4): 6.00 to 7.00
pIC50 (ROCK1): 6.00 to 7.00
pIC50 (YSK4): < 5.00

NCC(O)C(=O)Nc1ccc(-c2cn[nH]c2)cc1 (centres unmarked) [Compound 3, N-(4-(1H-pyrazol-4-yl)phenyl)-3-amino-2-hydroxypropanamide dihydrochloride]
pIC50 (ROCK1): 6.00 to 7.00

NCC(C(=O)Nc1ccc(Oc2cn[nH]c2)cc1)c1ccccc1 (centres unmarked) [Compound 18, N-(4-((1H-pyrazol-4-yl)oxy)phenyl)-3-amino-2-phenylpropanamide dihydrochloride]
pIC50 (ROCK1; read-out: ROCK1 IC50): < 5.00

NCC(C(=O)Nc1ccc(-c2cn[nH]c2)cc1)c1ccc(CO)cc1 (centres unmarked) [Compound 11, N-(4-(1H-pyrazol-4-yl)phenyl)-3-amino-2-(4-(hydroxymethyl)phenyl)propenamide dihydrochloride]
maximum effect (Emax) dose in the normal intraocular pressure rabbit model [1]: 0.5%
pIC50 (MYLK4): 6.00 to 7.00
pIC50 (ROCK1): 8.00 to 9.00
time point at which maximum effect is achieved ([3]; dose 0.5%): 1 h
Intraocular pressure difference (mmHg) ([3]; dose 0.5%): 2.0 mmHg

Cc1ccc(C(=O)Oc2ccc(C(CN)C(=O)Nc3ccc(-c4cn[nH]c4)cc3)cc2)c(C)c1 (centres unmarked) [Compound 10, 4-(1-((4-(1H-pyrazol-4-yl)phenyl)amino)-3-amino-1-oxopropan-2-yl)phenyl 2,4-dimethylbenzoate dihydrochloride]
pIC50 (MYLK4): < 6.00
pIC50 (ROCK1): 6.00 to 7.00
pIC50 (YSK4): < 5.00

NCC(Oc1ccccc1)C(=O)Nc1ccc(-c2cn[nH]c2)cc1 (centres unmarked) [Compound 4, N-(4-(1H-pyrazol-4-yl)phenyl)-3-amino-2-phenoxypropanamide dihydrochloride]
maximum effect (Emax) dose in the normal intraocular pressure rabbit model [1]: 1%
pIC50 (ROCK1): 8.00 to 9.00
time point at which maximum effect is achieved ([3]; dose 1%): 2 h
Intraocular pressure difference (mmHg) ([3]; dose 1%): 4.2 mmHg

NCC(C(=O)Nc1ccc(-c2cn[nH]c2)cc1)c1ccc(O)cc1 (centres unmarked) [Compound 9, N-(4-(1H-pyrazol-4-yl)phenyl)-3-amino-2-(4-hydroxyphenyl) propanamide dihydrochloride]
pIC50 (ROCK1): 8.00 to 9.00

NCC(Oc1ccc(C(F)(F)F)cc1)C(=O)Nc1ccc(-c2cn[nH]c2)cc1 (centres unmarked) [Compound 5, N-(4-(1H-pyrazol-4-yl)phenyl)-3-amino-2-(4-(trifluoromethyl)phenoxy)propenamide dihydrochloride]
maximum effect (Emax) dose in the normal intraocular pressure rabbit model [1]: 1%
pIC50 (MYLK4): 6.00 to 7.00
pIC50 (ROCK1): 8.00 to 9.00
time point at which maximum effect is achieved ([3]; dose 1%): 6 h
Intraocular pressure difference (mmHg) ([3]; dose 1%): 1.5 mmHg

NCC(C(=O)Nc1ccc(-c2cn[nH]c2)cc1)c1ccc(C=O)cc1 (centres unmarked) [Compound 13, N-(4-(1H-pyrazol-4-yl)phenyl)-3-amino-2-(4-formylphenyl)propanamide dihydrochloride]
pIC50 (MYLK4): 6.00 to 7.00
pIC50 (ROCK1; read-out: ROCK1 IC50): > 9.00
pIC50 (YSK4): < 6.00

Cc1ccc(C(=O)OCc2ccc(C(CN)C(=O)Nc3ccc(-c4cn[nH]c4)cc3)cc2)c(C)c1 (centres unmarked) [Compound 12, 4-(1-((4-(1H-pyrazol-4-yl)phenyl)amino)-3-amino-1-oxopropan-2-yl) benzyl 2,4-dimethylbenzoate dihydrochloride]
maximum effect (Emax) dose in the normal intraocular pressure rabbit model [1]: 0.25%
pIC50 (MYLK4): 6.00 to 7.00
pIC50 (ROCK1): 7.00 to 8.00
time point at which maximum effect is achieved ([3]; dose 0.25%): 6 h
Intraocular pressure difference (mmHg) ([3]; dose 0.25%): 2.0 mmHg
pIC50 (YSK4): < 6.00

NCC(C(=O)Nc1ccc(-c2cn[nH]c2)cc1)n1cc(-c2ccccc2)nn1 (centres unmarked) [Compound 2, dihydrochloride]
pIC50 (MYLK4): 6.00 to 7.00
pIC50 (ROCK1): 7.00 to 8.00
pIC50 (YSK4): < 5.00

NCC(C(=O)Nc1ccc(-c2cn[nH]c2)cc1)c1ccc(F)cc1 (centres unmarked) [Compound 8, N-(4-(1H-pyrazol-4-yl)phenyl)-3-amino-2-(4-fluorophenyl) propanamide dihydrochloride]
maximum effect (Emax) dose in the normal intraocular pressure rabbit model [1]: 1%
pIC50 (MYLK4): 7.00 to 8.00
pIC50 (ROCK1): 8.00 to 9.00
time point at which maximum effect is achieved ([3]; dose 1%): 6 h
Intraocular pressure difference (mmHg) ([3]; dose 1%): 5.2 mmHg
pIC50 (YSK4): < 6.00

NC[C@@H](C(=O)Nc1ccc2cnccc2c1)c1ccc(CO)cc1 [AR-13503, reference compound]
pIC50 (MYLK4): 6.00 to 7.00
pIC50 (ROCK1; read-out: ROCK1 IC50): > 9.00

NCC(C(=O)Nc1ccc(-c2cn[nH]c2)cc1F)c1ccccc1 (centres unmarked) [Compound 19, 3-amino-N-(2-fluoro-4-(1H-pyrazol-4-yl)phenyl)-2-phenylpropanamide dihydrochloride]
pIC50 (MYLK4): 6.00 to 7.00
pIC50 (ROCK1): 7.00 to 8.00
pIC50 (YSK4): < 6.00
